From patent US11458153B2, “Drug delivery composition comprising a self-assembled gelator” (The Brigham and Women's Hospital, Inc., priority 2008, dated 2022)

How the values were obtained:
[1] = Gelation ability of polyol amphiphiles in water and organic solvents; assay type: physicochemical; design: key: G = stable gel at room temperature; P = precipitate; Sol = soluble
Excerpt: (§1) Examples of suitable solvents include water, salt water (such as a NaCl solution), different […] such as TRISZMA buffers, and alkaline and acidic solutions. In addition to water-based solutions, the compounds can gel various aromatic and non-aromatic organic solvents, such as benzene, toluene, hexane, and acetonitrile. All the gels obtained in Table 7 were thermally reversible. Above their gelation temperature, the gels dissolved in solvent, but could be returned to their original gel state upon cooling.

[2] = as above; assay type: physicochemical; design: key: G = gel; P = precipitate; S = soluble; I = insoluble; details: solvent CHCl3
Excerpt: as §1

[3] = test system: arthritis bearing mouse joints (ankles and knees); details: direct injection into joints, sectioned after 8 days, fluorescence microscopy
Excerpt: In vivo: DiD encapsulated nanofiber gels (salicin-deconate nanofibers, prepared as above), were directly injected into the arthritis bearing mouse joints (ankles and knees) to examine the retention of nanofibers within the joints. After 8 days, ankles and knees were sectioned and imaged under fluorescence microscopy to examine the presence of nanofibers.
In vivo: DiD encapsulated nanofiber gels were directly injected into the arthritis bearing mouse joints (ankles and knees) to examine the retention of nanofibers within the joints. After 8 days, ankles and knees were sectioned and imaged under fluorescence microscopy to examine the presence of nanofibers.

[4] = DiD-encapsulated fibers, synovial fluid, 37° C.
Description: In vitro. […] Fibers were incubated with synovial fluid at 37° C. that was extracted from human arthritic joints (inflamed).

[5] = Dye-encapsulated nanofibers in absence of synovial fluid (PBS); assay type: physicochemical; details: DiD-encapsulated fibers in PBS
Excerpt: In vitro. […] Fibers were isolated by repetitive centrifugation and washing steps.

| presence of nanofibers in joints [3] | period of slow degradation of fibers by enzymes [4] | stability of nanofibers in absence of synovial fluid [5] | SMILES | Gelation ability ([1]; solvent 1,4-dioxane) | Gelation ability ([1]; solvent CCl4) | Gelation ability ([1]; solvent CH3CN) | Gelation ability ([1]; solvent DMSO) | Gelation ability ([1]; solvent NaCl (40 mM)) | Gelation ability ([1]; solvent TRIS (50 mM)) | Gelation ability ([1]; solvent acetone) | Gelation ability ([1]; solvent acidic (pH < 3)) | Gelation ability ([1]; solvent basic (pH > 12)) | Gelation ability ([1]; solvent benzene) | Gelation ability ([1]; solvent cyclohexane) | Gelation ability ([1]; solvent toluene) | Gelation ability ([1]; solvent water) | Gelation ability [2] |
| --- | --- | --- | --- | --- | --- | --- | --- | --- | --- | --- | --- | --- | --- | --- | --- | --- | --- |
| – | – | – | CCCCCCCCCCCC(=O)NC(CO)(CO)CO [polyol-12] | Sol | G | G | Sol | G | G | Sol | G | G | G | G | G | G | P |
| localized within the joints | 15 days | stable (in PBS) for months | CCCCCCCCCC(=O)OC[C@H]1O[C@@H](Oc2ccccc2CO)[C@H](O)[C@@H](O)[C@@H]1O [Salicin-deconate] | – | – | – | – | – | – | – | – | – | – | – | – | – | – |
